US8192962B2, “Processes for detecting toxic substances” (Daikin Industries, Ltd., priority 2001, dated 2012)

System: Transport facilitation protein genes
Assay: DNA chip mRNA expression in yeast, transport facilitation protein genes (Table 5)
Type: cell-based, Saccharomyces cerevisiae S288C
Experimental: Yeast (Saccharomyces cerevisiae S288C (α SUC2mal mel gap2 CUP1)) were incubated at 25° C. on YPD medium (yeast extract 1%, polypepton 2%, glucose 2%). One of toxic chemical substances was added to the cells at logarithmic growth phase, and the cells were further incubated for two hours. Cells were cultured without any chemical substance in the same condition, and were used as control. Concentrations of the chemical substances were defined to inhibit the growth of the yeast but not lead to death.
After completion of the incubation, the culture was centrifuged to collect the cells. To the cells, sodium acetate buffer (50 mM sodium acetate, 10 mM EDTA, 1% SDS) was added, and the mixture was shaken at 65° C. for five minutes, followed by returning to room temperature, and obtaining the supernatant, of which the procedures were repeated two times. To the supernatant, ½ amount of a solution of phenol/chloroform was added, and the mixture was centrifuged to give a supernatant, which was added with an equal amount of chloroform, and the mixture was centrifuged to give a supernatant. To the supernatant, an equal amount of isopropanol containing 0.3 M sodium acetate was added, and the mixture was allowed to stand at room temperature for 30 minutes, after which the mixture was centrifuged to give a sediment of the whole RNAs. Seventy % ethanol was added to the sediment, and the mixture was again centrifuged to give a sediment, which was then dried and dissolved in water. mRNA was isolated from the whole RNAs as followings. In view of the fact that a poly A chain is attached to the 3′ terminus of mRNA, a polynucleotide having a poly T structure which was immobilized on the surface of latex beads was used to trap the mRNA, and then the mRNA was washed and eluted with spine column (Oligotex-dT30<Super>mRNA Purification Kit, Takara). Reverse transcription of the mRNA was conducted with a reverse transcriptase (Super Script II Reverse Transcriptase; catalogue No. 18064-014, GibcoBRL) using fluorescence-labeled nucleotides to give cDNAs that were introduced with Cy3-dUTP or Cy5-dUTP during the reverse transcription.
The labeled cDNAs were dissolved in TE buffer (10mM Tris-HCl/1 mM EDTA, pH8.0), and the solution was dropped on the DNA chip containing the whole genes of yeast (DNA Chip Research Inc. Japan) so that the cDNAs were hybridized on the DNA chip at 65° C. for over 12 hours. The fluoresces intensity of the DNA chip was read with a scanner, and the ratio relative to the fluorescence intensity resulting from the absence of chemical substance was estimated as the following, which is shown in Tables 1 to 9: […]

CCCCC[C@H](O)CC(=O)CCc1ccc(O)c(OC)c1 [(13), gingerol]
The level of expressed mRNA in the presence of chemical substance/The level of expressed mRNA in the absence of chemical substance (yeast gene YBL030C): 0.5
The level of expressed mRNA in the presence of chemical substance/The level of expressed mRNA in the absence of chemical substance (yeast gene YBL099W): 0.9
The level of expressed mRNA in the presence of chemical substance/The level of expressed mRNA in the absence of chemical substance (yeast gene YBR052C): 2.1
The level of expressed mRNA in the presence of chemical substance/The level of expressed mRNA in the absence of chemical substance (yeast gene YBR068C): 2.2
The level of expressed mRNA in the presence of chemical substance/The level of expressed mRNA in the absence of chemical substance (yeast gene YBR127C): 0.9
The level of expressed mRNA in the presence of chemical substance/The level of expressed mRNA in the absence of chemical substance (yeast gene YBR132C): 1.4
The level of expressed mRNA in the presence of chemical substance/The level of expressed mRNA in the absence of chemical substance (yeast gene YBR207W): 2.2
The level of expressed mRNA in the presence of chemical substance/The level of expressed mRNA in the absence of chemical substance (yeast gene YBR291C): 1.0
The level of expressed mRNA in the presence of chemical substance/The level of expressed mRNA in the absence of chemical substance (yeast gene YBR293W): 3.0
The level of expressed mRNA in the presence of chemical substance/The level of expressed mRNA in the absence of chemical substance (yeast gene YBR294W): 3.1
The level of expressed mRNA in the presence of chemical substance/The level of expressed mRNA in the absence of chemical substance (yeast gene YBR295W): 1.8
The level of expressed mRNA in the presence of chemical substance/The level of expressed mRNA in the absence of chemical substance (yeast gene YBR298C): 0.8
The level of expressed mRNA in the presence of chemical substance/The level of expressed mRNA in the absence of chemical substance (yeast gene YCL025C): 0.5
The level of expressed mRNA in the presence of chemical substance/The level of expressed mRNA in the absence of chemical substance (yeast gene YCL038C): 1.9
The level of expressed mRNA in the presence of chemical substance/The level of expressed mRNA in the absence of chemical substance (yeast gene YCL069W): 0.8
The level of expressed mRNA in the presence of chemical substance/The level of expressed mRNA in the absence of chemical substance (yeast gene YCR024C-A): 0.5
The level of expressed mRNA in the presence of chemical substance/The level of expressed mRNA in the absence of chemical substance (yeast gene YCR037C): 1.3
The level of expressed mRNA in the presence of chemical substance/The level of expressed mRNA in the absence of chemical substance (yeast gene YCR098C): 1.4
The level of expressed mRNA in the presence of chemical substance/The level of expressed mRNA in the absence of chemical substance (yeast gene YDL128W): 1.6
The level of expressed mRNA in the presence of chemical substance/The level of expressed mRNA in the absence of chemical substance (yeast gene YDL198C): 2.0
The level of expressed mRNA in the presence of chemical substance/The level of expressed mRNA in the absence of chemical substance (yeast gene YDL210W): 1.2
The level of expressed mRNA in the presence of chemical substance/The level of expressed mRNA in the absence of chemical substance (yeast gene YDL245C): 2.0
The level of expressed mRNA in the presence of chemical substance/The level of expressed mRNA in the absence of chemical substance (yeast gene YDR038C): 2.0
The level of expressed mRNA in the presence of chemical substance/The level of expressed mRNA in the absence of chemical substance (yeast gene YDR039C): 1.8
The level of expressed mRNA in the presence of chemical substance/The level of expressed mRNA in the absence of chemical substance (yeast gene YDR086C): 0.7
The level of expressed mRNA in the presence of chemical substance/The level of expressed mRNA in the absence of chemical substance (yeast gene YDR270W): 1.8
The level of expressed mRNA in the presence of chemical substance/The level of expressed mRNA in the absence of chemical substance (yeast gene YDR298C): 1.2
The level of expressed mRNA in the presence of chemical substance/The level of expressed mRNA in the absence of chemical substance (yeast gene YDR342C): 0.6
The level of expressed mRNA in the presence of chemical substance/The level of expressed mRNA in the absence of chemical substance (yeast gene YDR343C): 0.8
The level of expressed mRNA in the presence of chemical substance/The level of expressed mRNA in the absence of chemical substance (yeast gene YDR345C): 1.2
The level of expressed mRNA in the presence of chemical substance/The level of expressed mRNA in the absence of chemical substance (yeast gene YDR387C): 1.3
The level of expressed mRNA in the presence of chemical substance/The level of expressed mRNA in the absence of chemical substance (yeast gene YEL027W): 0.7
The level of expressed mRNA in the presence of chemical substance/The level of expressed mRNA in the absence of chemical substance (yeast gene YEL065W): 0.8
The level of expressed mRNA in the presence of chemical substance/The level of expressed mRNA in the absence of chemical substance (yeast gene YER119C): 1.6
The level of expressed mRNA in the presence of chemical substance/The level of expressed mRNA in the absence of chemical substance (yeast gene YFL011W): 0.8
The level of expressed mRNA in the presence of chemical substance/The level of expressed mRNA in the absence of chemical substance (yeast gene YFL041W): 1.8
The level of expressed mRNA in the presence of chemical substance/The level of expressed mRNA in the absence of chemical substance (yeast gene YFL050C): 1.2
The level of expressed mRNA in the presence of chemical substance/The level of expressed mRNA in the absence of chemical substance (yeast gene YFL054C): 2.3
The level of expressed mRNA in the presence of chemical substance/The level of expressed mRNA in the absence of chemical substance (yeast gene YFL055W): 1.3
The level of expressed mRNA in the presence of chemical substance/The level of expressed mRNA in the absence of chemical substance (yeast gene YGL008C): 1.9
The level of expressed mRNA in the presence of chemical substance/The level of expressed mRNA in the absence of chemical substance (yeast gene YGL104C): 2.0
The level of expressed mRNA in the presence of chemical substance/The level of expressed mRNA in the absence of chemical substance (yeast gene YGL167C): 1.5
The level of expressed mRNA in the presence of chemical substance/The level of expressed mRNA in the absence of chemical substance (yeast gene YGR055W): 1.9
The level of expressed mRNA in the presence of chemical substance/The level of expressed mRNA in the absence of chemical substance (yeast gene YGR065C): 0.8
The level of expressed mRNA in the presence of chemical substance/The level of expressed mRNA in the absence of chemical substance (yeast gene YGR082W): 0.5
The level of expressed mRNA in the presence of chemical substance/The level of expressed mRNA in the absence of chemical substance (yeast gene YGR138C): 0.6
The level of expressed mRNA in the presence of chemical substance/The level of expressed mRNA in the absence of chemical substance (yeast gene YGR191W): 1.0
The level of expressed mRNA in the presence of chemical substance/The level of expressed mRNA in the absence of chemical substance (yeast gene YGR197C): 2.4
The level of expressed mRNA in the presence of chemical substance/The level of expressed mRNA in the absence of chemical substance (yeast gene YGR224W): 0.8
The level of expressed mRNA in the presence of chemical substance/The level of expressed mRNA in the absence of chemical substance (yeast gene YGR260W): 0.5
